# Where a name gives a salt, the structure may show the parent alone. Read-outs that look alike come from different tables or passages of the source.
# Assays:
# 4T1 cells = experiment: growth of 4T1 cells over 48 h, 96-well plate assay; assay type: cell-based, mouse; conditions: 4T1, 48 h
# Experimental: (§1) HeLa (ATCC CCL2) cells were grown in 150 cm^2 flasks in Minimal Essential Medium (Gibco), pH 7.4, at 37° C. with 10% bovine calf serum (heat inactivated, plus 50 mg/l gentamicin sulfate (Sigma). A mouse mammary tumor subpopulation line 4T1 arising from a BALB/cfC3H mouse (Miller et al., 1981, Brit. J. Cancer 56:561 and Miller et al., 1990, Invasion Metastasis 10:101) was grown in DME 10, Dulbecco's modified Eagle's medium supplemented with 5% fetal calf serum, 5% newborn calf serum, 1 mM mixed non-essential amino acids, 2 mM L-glutamine, penicillin (100 units/ml), and streptomycin (100 μg/ml).
# Cells were quantitated using a standard cytotoxicity assay (Matthews & Neale, 1987, In Lymphokines and Interferons. A Practical Approach. Clemens, M. J. et al., eds. IRL Press, Oxford, p. 221).
# HeLa cells = experiment: growth of HeLa cells in culture, 96-well plate assay; assay type: cell-based, human; conditions: for A580, % of no addition / Growth, % of control: HeLa; for Growth, % of control: no source
# [1] = molecular target: T1, NADH oxidase (tNOX) of 4T1 cells (Mus musculus, UniProt Q8R0Z2); experiment: inhibition of NADH oxidase (tNOX) activity of 4T1 cells; assay type: biochemical
# T1 construct: endogenous in cells; host or cells: 4T1 mouse mammary tumor cells
# T1 sequence (Q8R0Z2 1-598): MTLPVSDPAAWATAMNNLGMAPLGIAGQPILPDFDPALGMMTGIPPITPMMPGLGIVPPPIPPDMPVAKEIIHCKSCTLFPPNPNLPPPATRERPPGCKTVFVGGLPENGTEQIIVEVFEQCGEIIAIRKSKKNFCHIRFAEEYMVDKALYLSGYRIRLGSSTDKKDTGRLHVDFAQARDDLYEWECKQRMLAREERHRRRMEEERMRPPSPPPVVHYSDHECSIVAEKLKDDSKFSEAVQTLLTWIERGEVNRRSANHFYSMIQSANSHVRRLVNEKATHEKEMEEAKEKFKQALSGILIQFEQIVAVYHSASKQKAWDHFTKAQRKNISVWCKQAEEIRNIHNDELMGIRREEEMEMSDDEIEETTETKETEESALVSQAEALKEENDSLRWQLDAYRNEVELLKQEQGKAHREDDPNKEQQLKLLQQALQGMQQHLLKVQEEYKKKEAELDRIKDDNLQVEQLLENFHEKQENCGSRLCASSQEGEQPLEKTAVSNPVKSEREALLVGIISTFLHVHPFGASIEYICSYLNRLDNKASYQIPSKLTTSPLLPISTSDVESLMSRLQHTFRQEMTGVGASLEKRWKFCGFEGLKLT
# Experimental: as §1
# (§2) NADH oxidase activity may be monitored and measured by virtue of the decrease in absorbance at 340 nm wavelength. A millimolar extinction coefficient of 6.22 for NADH was used to calculate rates of NADH oxidation. Additional tests are such as those described by Morre, 1994, Bioenerg. Biomemb. 26:421, and Chueh et al., 1997, J. Biol. Chem. 272:11221, which are incorporated by reference in their entireties.
# [2] = molecular target: T2, NADH oxidase (tNOX) of HeLa cells (Homo sapiens, UniProt Q16206); experiment: inhibition of NADH oxidase (tNOX) activity of HeLa cells; assay type: biochemical
# T2 construct: endogenous in cells; host or cells: HeLa (ATCC CCL2)
# T2 sequence (Q16206 1-610): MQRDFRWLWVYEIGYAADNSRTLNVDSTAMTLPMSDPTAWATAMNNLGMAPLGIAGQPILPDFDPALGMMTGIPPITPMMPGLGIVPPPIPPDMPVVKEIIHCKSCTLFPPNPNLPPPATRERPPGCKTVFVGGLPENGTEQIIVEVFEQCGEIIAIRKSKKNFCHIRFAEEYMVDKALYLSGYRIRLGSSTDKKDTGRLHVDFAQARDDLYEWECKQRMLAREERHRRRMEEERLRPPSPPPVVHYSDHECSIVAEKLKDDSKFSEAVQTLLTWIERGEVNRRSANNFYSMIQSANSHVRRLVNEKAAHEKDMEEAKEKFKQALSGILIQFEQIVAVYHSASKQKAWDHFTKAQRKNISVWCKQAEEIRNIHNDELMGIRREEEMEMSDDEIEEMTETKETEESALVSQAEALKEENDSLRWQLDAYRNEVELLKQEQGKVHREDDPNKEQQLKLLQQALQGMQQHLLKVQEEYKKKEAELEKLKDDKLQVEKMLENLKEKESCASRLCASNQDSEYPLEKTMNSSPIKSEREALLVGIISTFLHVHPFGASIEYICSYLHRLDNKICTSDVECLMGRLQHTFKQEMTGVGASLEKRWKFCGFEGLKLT
# Experimental: as §1, §2
# [3] = system: 4T1 mouse mammary carcinoma cells; experiment: tumor weight and metastases of 4T1 mouse mammary carcinoma cells in BALBc mice; assay type: in vivo
# Experimental: Cells from monolayer culture were suspended in Hank's buffered salt solution and 1×10^6 cells were injected into the subscapular region in a volume of 0.1 ml.
# Anti-metastatic drugs were administered in the dose/injection indicated intratumoral in 0.1 ml total volume on alternate days beginning after palpable tumor masses were discernible (approximately 7 days post implantation) for a total of 6 injections. Appropriate solvent and sham-injected controls were included. At […] post tumor implantations, mice were sacrificed and major organs (e.g., lung, liver, lymph nodes) were examined for evidence of metastases.
# NADH oxidase = molecular target: T3, NADH oxidase (Homo sapiens, UniProt Q16206); experiment: NADH oxidase assay, genestein interactions (data not shown); assay type: biochemical
# T3 sequence (Q16206 1-610): T2 sequence (Q16206 1-610)
# Description: as §2
# cancer cells = experiment: cancer cell growth and apoptosis under EGCg; assay type: cell-based
# [4] = clearance of EGCg from the blood; conditions: in vivo
compound,measurement,setting,value
"COc1cc(CN)ccc1O [Vanillylamine, 4-hydroxy-3-methoxybenzy amine hydrochloride]","A580, % of no addition",4T1 cells; final concentration 1 μM,144 % of no addition
same,"A580, % of no addition","HeLa cells; 48 h, final concentration 1 μM",128 % of no addition
same,"Growth, % of control","HeLa cells; 48 h, vanillylamine 1:150",130 % of control
same,"Growth, % of control","HeLa cells; 72 h, vanillylamine 1:150",120 % of control
same,EC50,"[1]; 4T1, 1.5 × 10^6 cells (Table 2), read-out: EC50(M), inhibition of NADH oxidase",5e-09 M
same,EC50,"[2]; HeLa, 1.5 × 10^6 cells (Table 2), read-out: EC50(M), inhibition of NADH oxidase",1e-09 M
same,Tumor weight,"[3]; BALBc mice, intratumoral on alternate days, 6 injections, sacrifice 15 days post implantation",0.50 ± 0.20
same,neurological discomfort and possible toxicity,[3]; mouse model,without the neurological discomfort and possible toxicity
same,prevention of metastasis in a mouse model,[3]; mouse model,effective
same,Tumor growth and metastatic spread,[3]; three animals,prevented
O=c1c(-c2ccc(O)cc2)coc2cc(O)cc(O)c12 [genestein],growth of HeLa cells,HeLa cells; data not shown,inhibited
same,interactions of genestein with EC or Tegreen,HeLa cells; data not shown,additive
same,inhibition of growth of HeLa cells,HeLa cells; genestein at 10 μM,87%
same,toxicity,HeLa cells; genestein at 100 μM,toxic
same,interactions with EGCg on growth of HeLa cells,HeLa cells; higher genestein concentrations,no interactions were seen
same,interactions with 1 μM EGCg on growth of HeLa cells,"HeLa cells; low genestein concentrations, data not shown",additive
same,synergy with either vanillylamine or EGCg in the NADH oxidase assay,NADH oxidase,did not exhibit
(−)-epigallocatechin gallate [EGCg],"A580, % of no addition",4T1 cells; final concentration 20 μM,58 % of no addition
same,inhibition of growth of HeLa cells,HeLa cells; EGCg at 1 μM,12%
same,"A580, % of no addition","HeLa cells; 48 h, final concentration 20 μM",90 % of no addition
same,"Growth, % of control","HeLa cells; 48 h, EGCg 1:150",112 % of control
same,"Growth, % of control","HeLa cells; 72 h, EGCg 1:150",97 % of control
same,EC50,"[1]; 4T1 cells grown in culture (Table 3), read-out: EC50(M), inhibition of tNOX activity",1e-08 M
same,EC50,"[2]; HeLa cells grown in culture (Table 3), read-out: EC50(M), inhibition of tNOX activity",1e-07 M
same,growth of cancer cells,cancer cells; challenged with 10^−7 M EGCg every two hours during the day,inhibited
same,reversibility of the effect on cancer cell growth,"cancer cells; if the EGCg is removed, cancer cells resume normal rates of growth",reversible
same,clearance from the blood,[4],rapidly cleared from the blood and metabolized

# From patent publication US6759064B2, “Compositions based on vanilloid-catechin synergies for prevention and treatment of cancer” (Purdue Research Foundation, priority 2001, dated 2004)
